Source: patent US11813305B2, “Endoplasmic reticulum stress as a predictive tool in cancer therapy and a combination therapy for the treatment of cancer” (IMMUNE SYSTEM KEY LTD., priority 2016, dated 2023)
Square brackets hold non-standard residues; d marks the D form. Peptide text beside a SMILES is read from it.

Assays:
[1] = tested on: healthy human peripheral immune cells; format: cell-based; conditions: data not shown
Text: Therefore, without wishing to be bound by theory, dTCApFs appears to selectively affect cancer cells.

[2] = Pharmacokinetics of dTCApFs, phase I dose escalation study, i.v. 3 times/week; conditions: human, plasma
Description: (§1) The dose escalation study followed a traditional “3+3” scheme and included doses of 6, 12, 24, 48, and 96 mg/m^2 intravenous (i.v.) dTCApFs, 3 times/week in consecutive 28-day cycles. In all 3-patient cohorts, there were 2-4 weeks between the first dose for the first and second patients, and ≥1 week for the third patient. New dose levels started after follow up of ≥28 days for 3 patients at the previous level. MTD was defined as the highest dose level at which ≥1 of 3 subjects experience a DLT during their first cycle of treatment. […] In addition, PK parameters, including area under the curve (AUC), maximal plasma concentration (Cmax), and plasma half-life (t1/2) were determined. PK parameters were estimated using non-compartmental models.
(§2) dTCApFs powder for solution for injection is supplied as a lyophilized 5 mL vial containing either 15 mg (7.5 mg/mL) or 10 mL vial containing 80 mg (40 mg/mL) of the active substance with 4.8% mannitol, for reconstitution to a final volume of 2 mL with water for injection per vial as described above. The reconstituted 2 mL vial of dTCApFs powder for solution for injection must thereafter be diluted to a final volume 100 mL in aqueous Dextrose 5% for infusion for dose levels up to and including 48 mg/m2. For dose levels above 48 mg/m2, the final dilution volume was 250 mL. dTCApFs for injection was administered intravenously (iv) during 60 minutes.
(§3) PK parameters, including AUC (0-24), Cmax, Cmin, Tmax and t1/2 are estimated using non-compartmental models. Comparisons across dose levels are made to assess proportionality.

[3] = human, in vivo
Description: as §1, §2, §3

CC(C)C[C@@H](NC(=O)[C@H](NC(=O)[C@@H](CO)NC(=O)[C@H]1CCCN1C(=O)[C@@H](CC(C)C)NC(=O)[C@@H](Cc1ccccc1)NC(=O)[C@@H](Cc1ccccc1)NC(=O)[C@H](NC(=O)[C@@H](Cc1c[nH]c2ccccc12)NC(=O)[C@H](N)Cc1c[nH]c2ccccc12)[C@H](C)O)[C@H](C)O)C(=O)N[C@H](Cc1c[nH]c2ccccc12)C(=O)N[C@H](CCC(=O)O)C(=O)N[C@H](CCCNC(=N)N)C(=O)N[C@H](CCCCN)C(=O)O [dTCApFs, Trp Trp Thr Phe Phe Leu Pro Ser Thr Leu Trp Glu Arg Lys] (H-[dW][dW][dT][dF][dF][dL][dP][dS][dT][dL][dW][dE][dR][dK]-OH; N-terminus and C-terminus assumed)
cell death [1]: only minor cell death occurred | Cmax ([2]; intravenous, 12 mg/m^2, Cmax, Cycle 2, Day 1, 12 mg/m^2, n = 4): 6050 ng/mL | Cmax ([2]; intravenous, 24 mg/m^2, Cmax, Cycle 2, Day 1, 24 mg/m^2, n = 4): 14600 ng/mL | AUC ([2]; intravenous, 96 mg/m^2, AUC0, Cycle 2, Day 1, 96 mg/m^2, n = 3): 295000 ng·h/mL | AUC ([2]; iv, 6 mg/m2, AUC0, Cycle 1, Day 1, 6 mg/m^2, n = 3): 3810 ng·h/mL | AUC ([2]; iv, 6 mg/m2, AUC0, Cycle 2, Day 1, 6 mg/m^2, n = 3): 9720 ng·h/mL | Cmax ([2]; iv, 6 mg/m2, Cmax, Cycle 1, Day 1, 6 mg/m^2, n = 3): 1210 ng/mL | Cmax ([2]; iv, 6 mg/m2, Cmax, Cycle 2, Day 1, 6 mg/m^2, n = 3): 1540 ng/mL | half-life ([2]; iv, 6 mg/m2, T1/2, Cycle 1, Day 1, 6 mg/m^2, n = 3): 2.3 h | half-life ([2]; iv, 6 mg/m2, T1/2, Cycle 2, Day 1, 6 mg/m^2, n = 3): 2.8 h | AUC ([2]; iv, 12 mg/m2, AUC0, Cycle 1, Day 1, 12 mg/m^2, n = 4): 12900 ng·h/mL | AUC ([2]; iv, 12 mg/m2, AUC0, Cycle 2, Day 1, 12 mg/m^2, n = 4): 11500 ng·h/mL | Cmax ([2]; iv, 12 mg/m2, Cmax, Cycle 1, Day 1, 12 mg/m^2, n = 4): 6050 ng/mL | half-life ([2]; iv, 12 mg/m2, T1/2, Cycle 1, Day 1, 12 mg/m^2, n = 4): 2.1 h | half-life ([2]; iv, 12 mg/m2, T1/2, Cycle 2, Day 1, 12 mg/m^2, n = 4): 2 h | AUC ([2]; iv, 24 mg/m2, AUC0, Cycle 1, Day 1, 24 mg/m^2, n = 4): 49600 ng·h/mL | AUC ([2]; iv, 24 mg/m2, AUC0, Cycle 2, Day 1, 24 mg/m^2, n = 4): 57100 ng·h/mL | Cmax ([2]; iv, 24 mg/m2, Cmax, Cycle 1, Day 1, 24 mg/m^2, n = 4): 14600 ng/mL | half-life ([2]; iv, 24 mg/m2, T1/2, Cycle 1, Day 1, 24 mg/m^2, n = 4): 3.2 h | half-life ([2]; iv, 24 mg/m2, T1/2, Cycle 2, Day 1, 24 mg/m^2, n = 4): 3.7 h | AUC ([2]; iv, 48 mg/m2, AUC0, Cycle 1, Day 1, 48 mg/m^2, n = 4): 79900 ng·h/mL | AUC ([2]; iv, 48 mg/m2, AUC0, Cycle 2, Day 1, 48 mg/m^2, n = 4): 100000 ng·h/mL | Cmax ([2]; iv, 48 mg/m2, Cmax, Cycle 1, Day 1, 48 mg/m^2, n = 4): 18300 ng/mL | Cmax ([2]; iv, 48 mg/m2, Cmax, Cycle 2, Day 1, 48 mg/m^2, n = 4): 22100 ng/mL | half-life ([2]; iv, 48 mg/m2, T1/2, Cycle 1, Day 1, 48 mg/m^2, n = 4): 4.9 h | half-life ([2]; iv, 48 mg/m2, T1/2, Cycle 2, Day 1, 48 mg/m^2, n = 4): 4.6 h | AUC ([2]; iv, 96 mg/m2, AUC0, Cycle 1, Day 1, 96 mg/m^2, n = 3): 207000 ng·h/mL | Cmax ([2]; iv, 96 mg/m2, Cmax, Cycle 1, Day 1, 96 mg/m^2, n = 3): 33000 ng/mL | Cmax ([2]; iv, 96 mg/m2, Cmax, Cycle 2, Day 1, 96 mg/m^2, n = 3): 32000 ng/mL | half-life ([2]; iv, 96 mg/m2, T1/2, Cycle 1, Day 1, 96 mg/m^2, n = 3): 6 h | half-life ([2]; iv, 96 mg/m2, T1/2, Cycle 2, Day 1, 96 mg/m^2, n = 3): 8.5 h | relation of t1/2, Cmax and AUC0 to dose [3]: linearly related to dose
